Test results: article PMC11458808, “Identification and development of a series of disubstituted piperazines for the treatment of Chagas disease” (European Journal of Medicinal Chemistry, 2022)
≈ marks a conversion by molar mass, not a printed value.

What was measured:
[1] = test system: intracellular T. cruzi X10/7 A1 amastigotes; experiment: Intracellular T. cruzi assay; type: cell-based, Trypanosoma cruzi; conditions: for EC50: Trypanosoma cruzi, read-out: T. cruzi (pEC50) (converted); for EC50 / T. cruzi (pEC50): potency against intracellular T. cruzi amastigotes, at least three independent replicates, standard deviations ≤0.2; for Activity in the intracellular T. cruzi assay (in words): purified compound
Method: 1.1 Intracellular T. cruzi assay: Potency against intracellular T. cruzi X10/7 A1 amastigotes was determined as described previously with as sole modification that the compound treatment duration was increased from 72h to 96h.

[2] = Intrinsic clearance in mouse liver microsomes; type: in vitro ADME; conditions: mouse liver microsomal intrinsic clearance
Method: 2.2 Intrinsic clearance: This assay was conducted as previously described in [5].

[3] = Aqueous (kinetic) solubility by CAD; type: physicochemical; conditions: kinetic solubility measured by CAD
Method: 2.1 Aqueous solubility: This assay was conducted as previously described in [4].

[4] = ChromLogD pH7.4 (chromatographic hydrophobicity index); type: physicochemical; conditions: pH 7.4, CHIpH7.4 × 0.0857–2; for chromatographic logD: read-out: ChromlogDpH7.4

| Compound | EC50 [1] [µM] | Mouse CLi [2] [mL/min/g] | solubility [3] [µM] | chromatographic logD [4] | Activity in the intracellular T. cruzi assay (in words) [1] | T. cruzi (pEC50) [1] | ChromlogDpH7.4 [4] |
| --- | --- | --- | --- | --- | --- | --- | --- |
| Cc1ccc(S(=O)(=O)Nc2ccc(CN(C)C3CCN(C(=O)c4cccc(Cl)c4)C3)cc2)cc1 (stereo in doubt) [Compound 34, (S)-N-(4-(((1-(3-chlorobenzoyl)pyrrolidin-3-yl)(methyl)amino)methyl)phenyl)-4-methylbenzenesulfonamide] | 10 | >50 | 28 (≈ 13.9 µg/mL) | 5.7 | – | – | – |
| Cc1ccc(S(=O)(=O)Nc2ccc(CN[C@H]3CCN(C(=O)c4cccc(Cl)c4)C3)cc2)cc1 [Compound 31, (S)-N-(4-(((1-(3-chlorobenzoyl)pyrrolidin-3-yl)amino)methyl)phenyl)-4-methylbenzenesulfonamide] | 10 | >50 | 72 (≈ 34.8 µg/mL) | 4.9 | – | – | – |
| COc1ccc(S(=O)(=O)Nc2ccc(CN3CCN(C(=O)C4CCCN(C)C4)CC3)cc2)cc1 (stereo not shown) [Compound 20, 4-methoxy-N-(4-((4-(1-methylpiperidine-3-carbonyl)piperazin-1-yl)methyl)phenyl)benzenesulfonamide] | > 50.1 | 1.5 | ≥ 526 | 2.3 | – | – | – |
| N#Cc1ccc(S(=O)(=O)Nc2ccc(CN3CCN(C(=O)c4cccc(Cl)c4)CC3)cc2)cc1 [Compound 5, N-(4-((4-(3-chlorobenzoyl)piperazin-1-yl)methyl)phenyl)-4-cyanobenzenesulfonamide] | 7.94 | >50 | 54 (≈ 26.7 µg/mL) | 5.2 | – | – | – |
| COc1ccc(S(=O)(=O)Nc2ccc(CN3CC[C@H](NC(=O)c4cccc(Cl)c4)C3)cc2)cc1 [Compound 30, (S)-3-chloro-N-(1-(4-((4-methoxyphenyl)sulfonamido)benzyl)pyrrolidin-3-yl)benzamide] | 50.1 | >50 | 51 (≈ 25.5 µg/mL) | 5.1 | – | – | – |
| O=C(c1cccc(Cl)c1)N1CCN(Cc2ccc(NS(=O)(=O)c3ccccc3)cc2)CC1 [Compound 3, N-(4-((4-(3-chlorobenzoyl)piperazin-1-yl)methyl)phenyl)benzenesulfonamide] | 1.58 | >50 | 67 (≈ 31.5 µg/mL) | 5.5 | – | – | – |
| O=C(c1cccc(Cl)c1)N1CCN(Cc2ccc(NS(=O)(=O)CC3CCCO3)cc2)CC1 (stereo not shown) [Compound 7, N-(4-((4-(3-chlorobenzoyl)piperazin-1-yl)methyl)phenyl)-1-(tetrahydrofuran-2-yl)methanesulfonamide] | 15.8 | 44 | 486 (≈ 232 µg/mL) | 4.6 | – | – | – |
| COc1ccc(S(=O)(=O)Nc2cnc(CN3CCN(C(=O)c4cccc(Cl)c4)CC3)nc2)cc1 [Compound 43, N-(2-((4-(3-chlorobenzoyl)piperazin-1-yl)methyl)pyrimidin-5-yl)-4-methoxybenzenesulfonamide] | > 50.1 | 1.5 | ≥ 474 | 2.9 | lacked any activity | – | – |
| Cc1ccc(S(=O)(=O)Nc2ccc(CNC3CN(C(=O)c4cccc(Cl)c4)C3)cc2)cc1 [Compound 38, N-(4-(((1-(3-chlorobenzoyl)azetidin-3-yl)amino)methyl)phenyl)-4-methylbenzenesulfonamide] | 12.6 | >50 | 70 (≈ 32.9 µg/mL) | 4.8 | – | – | – |
| CC#CC(=O)N1CCN(Cc2ccc(NS(=O)(=O)c3ccc(C)cc3)cc2)CC1 [Compound 26, N-(4-((4-(but-2-ynoyl)piperazin-1-yl)methyl)phenyl)-4-methylbenzenesulfonamide] | > 50.1 | >50 | 367 (≈ 151 µg/mL) | 4.4 | inactive | – | – |
| COc1ccc(S(=O)(=O)Nc2ccc(CN3CCN(C(=O)C4CN(C(C)=O)C4)CC3)cc2)cc1 [Compound 21, N-(4-((4-(1-acetylazetidine-3-carbonyl)piperazin-1-yl)methyl)phenyl)-4-methoxybenzenesulfonamide] | > 50.1 | 1.0 | ≥ 511 | 2.6 | – | – | – |
| Cc1ccc(S(=O)(=O)Nc2ccc(CN3CCN(C(=O)Cc4coc5ccccc45)CC3)cc2)cc1 [Compound 25] | – | >50 | 22 (≈ 11.1 µg/mL) | – | – | 5.2 | 5.7 |
| O=C(c1cccc(Cl)c1)N1CCN(Cc2ccc(N3CCCCS3(=O)=O)cc2)CC1 [Compound 8, (3-chlorophenyl)(4-(4-(1,1-dioxido-1,2-thiazinan-2-yl)benzyl)piperazin-1-yl)methanone] | 25.1 | 21 | ≥ 402 | 5.1 | – | – | – |
| COc1ccc(S(=O)(=O)Nc2ccc(CN3CCN(C(=O)c4cc(C(F)(F)F)n[nH]4)CC3)cc2)cc1 [Compound 17, 4-methoxy-N-(4-((4-(5-(trifluoromethyl)-1H-pyrazole-3-carbonyl)piperazin-1-yl)methyl)phenyl)benzenesulfonamide] | 6.31 | 6.4 | 122 (≈ 63.9 µg/mL) | 4.9 | – | – | – |
| COc1ccc(S(=O)(=O)Nc2ccc(CN3C[C@@H]4C[C@H]3CN4C(=O)c3cccc(Cl)c3)cc2)cc1 [Compound 39, N-(4-(((1S,4S)-5-(3-chlorobenzoyl)-2,5-diazabicyclo[2.2.1]heptan-2-yl)methyl)phenyl)-4-methoxybenzenesulfonamide] | 15.8 | >50 | 47 (≈ 24.1 µg/mL) | 5.1 | – | – | – |
| COc1ccc(S(=O)(=O)Nc2ccc(CN3CCN(C(=O)c4cccc(F)c4)CC3)cc2)cc1 [Compound 11, N-(4-((4-(3-fluorobenzoyl)piperazin-1-yl)methyl)phenyl)-4-methoxybenzenesulfonamide] | 0.631 | >50 | 76 (≈ 36.8 µg/mL) | 4.8 | – | – | – |
| Cc1ccc(S(=O)(=O)Nc2ccc(CN(C)[C@H]3CCN(C(=O)c4cccc(Cl)c4)C3)cc2)cc1 [Compound 33, (S)-N-(4-(((1-(3-chlorobenzoyl)pyrrolidin-3-yl)(methyl)amino)methyl)phenyl)-4-methylbenzenesulfonamide] | 6.31 | >50 | 27 (≈ 13.4 µg/mL) | 5.7 | – | – | – |
| O=C(c1cccc(Cl)c1)N1CCN(Cc2ccc(NS(=O)(=O)c3ccc4c(c3)OCO4)cc2)CC1 [Compound 6, N-(4-((4-(3-chlorobenzoyl)piperazin-1-yl)methyl)phenyl)benzo[d][1,3]dioxole-5-sulfonamide] | 0.158 | >50 | 33 (≈ 17 µg/mL) | 5.2 | – | – | – |
| CS(=O)(=O)Nc1ccc(CN2CCN(C(=O)c3cccc(Cl)c3)CC2)cc1 [Compound 2, N-(4-((4-(3-chlorobenzoyl)piperazin-1-yl)methyl)phenyl)methanesulfonamide] | > 50.1 | 2.6 | ≥ 470 | 4 | complete loss of potency | – | – |
| CN1CCN(S(=O)(=O)Nc2ccc(CN3CCN(C(=O)c4cccc(Cl)c4)CC3)cc2)CC1 [Compound 9, N-(4-((4-(3-chlorobenzoyl)piperazin-1-yl)methyl)phenyl)-4-methylpiperazine-1-sulfonamide] | 15.8 | 32 | ≥ 430 | 4.1 | – | – | – |
| Cc1ccc(S(=O)(=O)Nc2ccc(CN[C@@H]3CCN(C(=O)c4cccc(Cl)c4)C3)cc2)cc1 [Compound 32, (R)-N-(4-(((1-(3-chlorobenzoyl)pyrrolidin-3-yl)amino)methyl)phenyl)-4-methylbenzenesulfonamide] | 15.8 | 48 | 75 (≈ 36.3 µg/mL) | 4.9 | – | – | – |
| 4-methoxy-N-(4-((4-(1-methyl-4-oxo-1,4-dihydroquinoline-2-carbonyl)piperazin-1-yl)methyl)phenyl)benzenesulfonamide [Compound 27] | – | >50 | 29 | – | – | 5.4 | 5.4 |
| COc1ccc(S(=O)(=O)Nc2ccc(CN3CCN(C(=O)c4ccc(C)c(Cl)c4)CC3)cc2)cc1 [Compound 15, N-(4-((4-(3-chloro-4-methylbenzoyl)piperazin-1-yl)methyl)phenyl)-4-methoxybenzenesulfonamide] | 1.26 | >50 | 13 (≈ 6.68 µg/mL) | 5.8 | – | – | – |
| COc1ccc(S(=O)(=O)Nc2ccc(CN3CCN(C(=O)c4ccnc(C)n4)CC3)cc2)cc1 [Compound 19, 4-methoxy-N-(4-((4-(2-methylpyrimidine-4-carbonyl)piperazin-1-yl)methyl)phenyl)benzenesulfonamide] | > 50.1 | 12 | 414 (≈ 199 µg/mL) | 3.2 | – | – | – |
| COc1ccc(S(=O)(=O)Nc2ccc(CN3CCN(C(=O)c4cccc(Cl)c4)CC3)nc2)cc1 [Compound 44, N-(6-((4-(3-chlorobenzoyl)piperazin-1-yl)methyl)pyridin-3-yl)-4-methoxybenzenesulfonamide] | 7.94 | 39 | ≥ 373 | 4.5 | – | – | – |
| COc1ccc(S(=O)(=O)Nc2ccc(CN3CCN(C(=O)c4cccc(C)c4)CC3)cc2)cc1 [Compound 12] | 1 | – | 64 (≈ 30.7 µg/mL) | 5.1 | – | – | – |
